The numbers were not newly measured in patent US11000475B2, “Ophthalmic solution of difluprednate” (Sun Pharma Advanced Research Company Limited, priority 2015, dated 2021), which cites them from elsewhere.

With `CCCC(=O)O[C@]1(C(=O)COC(C)=O)CCC2[C@@H]3CC(F)C4=CC(=O)C=C[C@]4(C)C3(F)[C@@H](O)C[C@@]21C` (stereo partly shown) [Difluprednate], the “solubility in aqueous vehicle” value is “practically insoluble”.
